Three molecules from patent publication US9572833B2, “Treatment of red blood cells” (The General Hospital Corporation, priority 2011, dated 2017) can be followed below.

The nature of data set [1]: Tail-cuff systolic blood pressure in db/db mice after infusion of MAHMA/NO pre-treated stored red blood cells. The class given is in vivo. The conditions noted are these: SRBC pre-treated with 1 mM MAHMA/NO; awake db/db mice. Here is the method:
Murine stored red blood cells were pretreated with 1 mM MAHMA before infusion into db/db mice.

The target of data set [2] is T1, supernatant hemoglobin (Mus musculus, UniProt P01942+P02088).
T1 construct: from tissue; host or cells: murine stored red blood cells (14 days), supernatant
T1 sequence (P01942 2-142 limits assumed): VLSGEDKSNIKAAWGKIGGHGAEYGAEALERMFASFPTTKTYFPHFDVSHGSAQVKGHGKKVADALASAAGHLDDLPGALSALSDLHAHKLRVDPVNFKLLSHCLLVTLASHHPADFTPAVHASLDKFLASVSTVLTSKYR
T1 sequence (P02088 2-147 limits assumed): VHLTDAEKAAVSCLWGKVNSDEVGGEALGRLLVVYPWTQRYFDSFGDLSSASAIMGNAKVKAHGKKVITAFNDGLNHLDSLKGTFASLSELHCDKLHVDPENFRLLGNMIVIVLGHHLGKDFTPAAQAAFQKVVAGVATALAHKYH
The data set is described as follows: MAHMA/NO treatment of murine stored red blood cells. The class given is biochemical. Particulars: murine RBC stored 14 days. The text has this: This is likely due to the higher levels of hemolysis observed in murine red blood cell storage. At baseline levels, hemolysis is higher than in human stored red blood cells, and increasing concentrations of MAHMA/NO were required to fully oxidize the […] hemoglobin.

Data set [3] deals with T2, supernatant hemoglobin (Homo sapiens, UniProt P68871+P69905).
T2 construct: 99% of the supernatant hemoglobin being oxidized to methemoglobin; from tissue; host or cells: human stored red blood cells (46 days), supernatant and cells
T2 sequence (P69905 2-142 limits assumed): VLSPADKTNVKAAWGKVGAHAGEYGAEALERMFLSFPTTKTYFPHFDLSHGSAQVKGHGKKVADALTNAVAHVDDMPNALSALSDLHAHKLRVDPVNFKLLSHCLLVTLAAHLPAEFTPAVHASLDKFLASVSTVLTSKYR
T2 sequence (P68871 2-147 limits assumed): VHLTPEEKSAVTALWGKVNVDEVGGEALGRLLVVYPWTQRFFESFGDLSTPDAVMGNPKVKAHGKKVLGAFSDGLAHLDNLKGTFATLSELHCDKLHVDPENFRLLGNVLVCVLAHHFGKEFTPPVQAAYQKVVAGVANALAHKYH
The data set is described as follows: MAHMA/NO treatment of human stored red blood cells. The class given is biochemical. The conditions noted are these: human RBC stored 46 days. Here is the method:
Human stored red blood cells (stored, 46 days) were treated with MAHMA/NO ((Z)-1-[N-Methyl-N-[6-(N-methylammoniohexyl)amino]]diazen-1-ium-1,2-diolate). […] In contrast, only 15% of the red blood cell hemoglobin was oxidized by this treatment (FIG. 14A).

In the next data set the target is T3, human hemoglobin (Homo sapiens, UniProt P68871+P69905).
T3 construct: from tissue; host or cells: human red blood cells (adsol-preserved) plus plasma with added human hemoglobin
T3 sequence (P69905 2-142 limits assumed): as the sequence (P69905 2-142 limits assumed) above
T3 sequence (P68871 2-147 limits assumed): as the sequence (P68871 2-147 limits assumed) above
Nature of the data set: Methemoglobin conversion after nitric oxide gas treatment of red blood cells via membrane gas exchanger. The format is biochemical. Particulars: 2600 ppm nitric oxide in nitrogen, single pass. Here is the method: Plasma containing added human hemoglobin was added to adsol-preserved human red blood cells. The red blood cells were pumped (at flow rates of 5, 7.5, and 10 ml/min) through a membrane gas exchanger (Living Systems instrumentation Inc., St. Albans, Vt.), which exposed the cells (on a single pass through the gas exchanger) to 2600 ppm nitric oxide gas in nitrogen.

Data set [4] is described as follows: Non-invasive measurement of systolic blood pressure in awake mice after transfusion. The class given is in vivo. The conditions noted are these: awake db/db mice; 80 ppm from 10 min prior to transfusion until 2 h after. As for the experimental part:
Systolic blood pressure was measured with a non-invasive blood pressure system (XBP 1000, Kent Scientific, Torrington, Conn.) (Yu et al., Circulation 2008; 117: 1982-90; Yu et al., Anesthesiology 2010; 112: 586-94). All tail vein injections were performed over one minute.

The nature of data set [5]: Hemodynamic effects of PRBC transfusion in lamb model of L-NAME-induced endothelial dysfunction. The class given is in vivo. Particulars: lambs pretreated with L-NAME. As for the experimental part:
(§1) Invasive hemodynamic measurements were performed in 28 lambs. Anesthesia was induced by breathing 5% isoflurane (Baxter, Deerfield, Ill.) in oxygen via mask. After endotracheal intubation, animals underwent a tracheostomy and were instrumented with indwelling carotid artery and pulmonary artery catheters, as previously described (Yu et al., Anesthesiology 2010; 112:586-94). After a 2-h recovery period from general anesthesia in a large-animal restraint unit (Lomir, Malone, N.Y.), the mean arterial pressure (MAP), mean pulmonary arterial pressure (PAP), and central venous pressure were monitored continuously using a Gould 6600 amplifier system (Gould Electronics, Inc., Eastlake, Ohio). Pulmonary capillary wedge pressure (PCWP) and heart rate were intermittently measured every 10-30 min. Cardiac output was assessed by thermal dilution as the average of three measurements after intravenous bolus-injection of 10 ml ice-cold saline solution. Systemic vascular resistance index and pulmonary vascular resistance index (PVRI), as well as cardiac index, were calculated using standard formulae. Hemodynamic data was collected until 4 h after the end of transfusion.
(§2) Three additional groups of lambs were studied after intravenous infusion of the NOS inhibitor, N^G-nitro-L-arginine methyl-ester (L-NAME, Sigma-Aldrich, St. Louis, Mo.). A bolus of 25 mg/kg L-NAME was injected IV 1 h before transfusion (Weimann et al., Anesthesiology 2000; 92:1702-12). Concomitantly, an infusion of 5 mg/kg/h L-NAME was started and continued throughout the study. […] NOS-independent systemic vasodilation was also assessed by intravenous injection of sodium nitroprusside (Sigma-Aldrich) at the end of each experiment.
After L-NAME treatment, a fourth group of lambs (n=4) received fresh PRBCs, and a fifth group (n=5) received stored PRBCs. In the sixth group (n=4), following L-NAME injection, inhalation of 80 ppm nitric oxide at FiO2 0.25 was commenced 10 min prior to transfusion of stored PRBC. Nitric oxide breathing continued throughout the transfusion and for 30 min after transfusion ended.

The nature of data set [6]: Hemodynamic effects of PRBC transfusion in awake lambs. The format is in vivo. The conditions noted are these: 80 ppm during transfusion and 30 min thereafter, no L-NAME. As for the experimental part: as §1
Six groups of awake lambs were studied. […]

The test system of the next data set is NOS. Nature of the data set: Partial inhibition of NOS by L-NAME in lambs (acetylcholine / sodium nitroprusside vasodilation, hemodynamics). The format is in vivo. Here is the method:
as §2

Setting [7] is: 25 mg/kg IV bolus plus 5 mg/kg/h infusion.

As for `CNCCCCCCN(C)/[N+]([O-])=N/O` [MAHMA/NO, (Z)-1-[N-Methyl-N-[6-(N-methylammoniohexyl)amino]]diazen-1-ium-1,2-diolate], the “Hypertensive effect caused by infusion of stored red blood cells” value in data set [1] is given as “attenuated the hypertensive effect”. The same molecule yielded a Supernatant methemoglobin at supernatant hemoglobin [2] (1 mM) of 70%. Moreover, the “Level of cell-free hemoglobin in the supernatant” value at supernatant hemoglobin [2] was “decreases upon addition of MAHMA/NO”. On supernatant hemoglobin [3] (0.5 mM), the “Red blood cell hemoglobin oxidized” value was determined as 15% and the “Supernatant hemoglobin oxidized to methemoglobin” value stood at 99%. Moreover, the “Hemolysis after addition of MAHMA/NO” value at supernatant hemoglobin [3] is listed as “no further hemolysis”.
Take `[N]=O` [nitric oxide]: the “Human red cell hemoglobin converted to methemoglobin” value on human hemoglobin is on record as “only a few percent”. On human hemoglobin (flow 5, 7.5, 10 ml/min, adsol-preserved human RBC), the “Supernatant oxyhemoglobin converted to methemoglobin” value is listed as “approximately 50%”. Besides, the “Effect of breathing nitric oxide on systemic hypertension induced by SRBC transfusion” value in data set [4] is “completely prevented the systemic hypertension”. The “Effect of inhalation of nitric oxide on MAP” value in data set [5] (80 ppm) is reported as “did not alter MAP”. The “Effect of concurrent inhalation of nitric oxide on PAP and PVRI” value in data set [5] (80 ppm, stored PRBC transfusion) is “reduced the PAP and PVRI to baseline”. Moreover, the “Time after end of nitric oxide breathing at which PAP and PVRI returned to pre-transfusion levels” value in data set [5] was found to be 60 min. For the same molecule, the “PAP with transfusion of stored PRBCs while breathing nitric oxide” value in data set [6] (baseline 12±1) turned out to be 13±1 mmHg. The “PVRI with transfusion of stored PRBCs while breathing nitric oxide” value in data set [6] (baseline 107±14) is recorded as 105±22 dyn·sec·cm^−5·m^−2.
On to `COC(=O)[C@@H](N)CCCNC(=N)N[N+](=O)[O-]` [L-NAME, N^G-nitro-L-arginine methyl-ester], for which, in the data set on NOS (setting [7]), the “Reduction in the ability of acetylcholine infusion to induce systemic vasodilation” value is 50% and the “Vasodilator response to intravenous bolus of sodium nitroprusside” value was “did not alter the vasodilator response”. In addition, in the data set on NOS (awake lambs), the “Cardiac index and heart rate after L-NAME infusion” value is “decreased”; the “MAP, PAP, central venous pressure, PCWP, systemic and pulmonary vascular resistance indices after L-NAME infusion” value is given as “increased”.
